Read-outs that look alike come from different tables or passages of the source.
Key:
[1] = system: NHLFs; assay: FBS induced proliferation of NHLFs (BrdU incorporation); assay type: cell-based, Human
Protocol: Human normal lung fibroblasts (NHLFs) were purchased from Lonza (Basel, Switzerland). NHFLs were cultured in Eagle's Minimum Essential medium (EMEM) w/o serine and glycine, supplemented with 10% Fetal Bovine Serum (FBS), antibiotics (50 U/ml penicillin and 0.05 mg/ml streptomycin) and 2 mM L-glutamine, in an atmosphere of 95% air and 5% CO2 at 37° C. NHLFs cultures were used between passage 1 and 9. Before all the experiments, cells were incubated overnight in serum-free medium.
The antiproliferative activity of compounds of the present invention has been monitored measuring the incorporation of bromodeoxyuridine (BrdU), a thymidine analog of DNA, in newly synthesized DNA after treatment in lung cells. Briefly, NHLFs were seeded in 96-well and treated with different concentrations of Compound 19 and NCT-503 in EMEM medium for 1 h followed by stimulation with Fetal Bovine Serum (FBS) for 72 h at 37° C., 5% CO2. After cell treatments, 10 μl/well BrdU labeling solution was added for incorporation in proliferating cells for 2 h at 37° C., 5% CO2. After removing the culture medium, the cells are fixed, and the DNA is denatured by adding FixDenat followed by incubation with 100 μl/well Anti-BrdU-POD for detection. The reaction product is quantified by measuring the absorbance at the respective wavelength using a scanning multiwell spectrophotometer (ELISA reader).

[2] = Plasma and tissue exposure in PK/PD model; assay type: in vivo, mouse male (C57BL/6J); details: male, C57BL/6J, mouse, 300 mg/kg, 1 h, 6.5 h and 24.5 h
Protocol: (§1) Animals were fasted overnight before treatment. Following 0.5 h from administration of either Compound 19 at dose of 300 mg/kg or vehicle (0.5% Tween 80, 0.5% Methylcellulose in H2O), ^13C6-glucose was administered by oral gavage (2 g/kg, Merck Life Science Srl). Blood, lung, and brain samples were collected at 1 h, 6.5 h and 24.5 h after treatment with Compound 19 or vehicle.
The tissue concentration of ^13C3-serine was determined by a liquid chromatography-tandem mass spectrometry (LC/MS/MS) assay. GraphPad Prism (version 8.1.2) was used for drawing graphs and for statistical analysis. Plasma or tissue homogenate samples (tissues were homogenized with a water/acetonitrile 50/50 mixture) were extracted with 3 volumes of acetonitrile. Supernanatant was injected into HPLC system (Agilent 1260 Quaternary Pump equipped with an Agilent 1200 High Performance Autosampler SL; Agilent), using a Kinetex EVO C18 analytical column (100 A, 50×2.1 mm, 2.6 μm; Phenomenex) for the analysis of Compound 19 or an InfinityLab Poroshell 120 Hilic-Z (50×2.1 mm 2.7 μm; Agilent) for the analysis of ^13C3-serine. […]
Mass spectrometric analysis was performed on a linear ion trap triple quadrupole mass spectrometer (4000 Q TRAP; AB SCIEX) equipped with a turbo spray ion source; mass spectrometer was operated in positive ion mode and quantification was achieved by multiple reaction monitoring (MRM) mode. […]

[3] = system: synthesis of 13C3-serine; assay: PK/PD model: in vivo [13C6] glucose tracing, inhibition of 13C3-serine synthesis; parameters: species or system mouse male (C57BL/6J); details: for inhibition at 300 mg/kg: Mus musculus
Protocol: As PHGDH catalyzes the rate-limiting step of glucose-derived serine synthesis, a pharmacokinetic/pharmacodynamic (PK/PD) experiment aimed to assess the inhibition of the synthesis of ^13C3-serine after oral administration of ^13C6-glucose was performed in mouse male (C57BL/6J).
as §1
The tissue concentration of ^13C3-serine was determined by a liquid chromatography-tandem mass spectrometry (LC/MS/MS) assay. GraphPad Prism (version 8.1.2) was used for drawing graphs and for statistical analysis. Plasma or tissue homogenate samples (tissues were homogenized with a water/acetonitrile 50/50 mixture) were extracted with 3 volumes of acetonitrile. Supernanatant was injected into HPLC system (Agilent 1260 Quaternary Pump equipped with an Agilent 1200 High Performance Autosampler SL; Agilent), using a Kinetex EVO C18 analytical column (100 A, 50×2.1 mm, 2.6 μm; Phenomenex) for the analysis of Compound 19 or an InfinityLab Poroshell 120 Hilic-Z (50×2.1 mm 2.7 μm; Agilent) for the analysis of ^13C3-serine. The mobile phases consisted of 0.1% formic acid in water (solvent A) and 0.1% formic acid in acetonitrile (solvent B); chromatographic separation was performed with gradient elution method (see conditions below): • Compound 19 (0.0-0.5 min, 10% B; 0.5-3.0 min, gradient to 90% B; 3.0-5.0 min. 90% B; 5.0-6.0 min, gradient to 10% B; 6.0-10.0 min, 10% B—flow rate: 0.4 mL/min). • S^13C3-serine (0.0-0.5 min, 95% B; 0.5-4.0 min, gradient to 60% B; 4.0-5.0 min, 60% B; 5.0-6.0 min, gradient to 95% B; 6.0-10.0 min, 95% B—flow rate: 0.4 mL/min).
Mass spectrometric analysis was performed on a linear ion trap triple quadrupole mass spectrometer (4000 Q TRAP; AB SCIEX) equipped with a turbo spray ion source; mass spectrometer was operated in positive ion mode and quantification was achieved by multiple reaction monitoring (MRM) mode. Peak integration was performed using Analyst (version 1.6.2.). GraphPad Prism (version 8.1.2) was used for drawing graphs and for statistical analysis.
After 0.5 h from administration of Compound 19a at dose of 3, 10, 30, 100 and 300 mg/kg po, Compound 19 at dose of 300 mg/kg po or vehicle po (0.5% Tween 80, 0.5% Methylcellulose in H2O), mice received ^13C6-glucose by oral gavage (2 g/kg, Merck Life Science Srl). […] Blood was withdrawn by cardiac puncture and collected in heparin tubes.

[4] = system: bleomycin-induced pulmonary fibrosis; assay: Bleomycin-induced pulmonary fibrosis in male mice (Example 5)
Protocol: Male C57BL6/J mice (7-8 weeks old) were purchased from the Envigo RMS (San Pietro al Natisone (UD), Italy). All mice were maintained under pathogen-free conditions and were provided food and water ad libitum.
Lung injury was induced by double oropharyngeal instillation of Bleomycin hydrochloride (BLM, BAXTER) at day 0 and day 4 at the doses of 0.02 U/mouse in 50 μl of saline solution (0.9%). Control animals received double oropharyngeal instillation of 50 μl of saline solution.
Compound 19 was orally administered twice daily, starting on day 7 after the first oropharyngeal administration of bleomycin at the two doses of 400 and 600 mg/kg/day, 10 ml/kg, dissolved in 0.5% Tween 80, 0.5% Methylcellulose in H2O and treatment lasted for two weeks.
A group of animals was treated with Nintedanib esylate salt, at the dose of 60 mg/kg/day, 10 ml/kg, once daily, to compare the efficacy of the test compounds with an FDA approved drug for the treatment of IPF patients. Control mice were given vehicle-only over the same time intervals. Weight of all animals has been assessed twice a week starting from day 0 until day 21.
On days 21, mice were anesthetized by intraperitoneal injection of thiopental (200 mg/kg/10 ml; pentothal sodium, MSD Animal Health Srl). Blood was withdrawn by cardiac puncture and collected in heparine tubes. Plasma was obtained after centrifugation of blood at 10,000 g for 10 min. Lungs were lavage with saline solution through the heart, formalin fixed and paraffin embedded, and sections were stained with Masson's Trichrome to evaluate the grade and severity of fibrosis and collagen deposition.
Masson's Trichrome stained slides were also scanned with NanoZoomer S60 (Hamamatsu Photonics K.K., Shizuoka, Japan) and acquired into the Visiopharm Integrator System (VIS; version 2017.2.4.3387) for a quantification of pulmonary fibrosis by automated analysis with the support of a VIS Analysis Protocol Package (APP). The present APP has been designed to identify and then quantify the fibrotic tissue, detecting accumulation of altered connective tissue, excess of collagen deposition and cellular density.
To quantify lung protein content and the levels of specific proteins as markers of fibrosis and collagen deposition, lungs from subgroups of animals were weighted, homogenized in Phosphate buffer solution (PBS) and proteins of interest were quantified by immunometric or colorimetric assays. Hydroxyproline content was determined using the Hydroxyproline Colorimetric Assay Kit (Sigma MAK008, USA) according to the manufacturer's protocol. WISP-1, CollagenI, pro-CollagenI and Elastin were determined by Elisa kits. Protein quantification was performed using DC Protein Assay (Bio-Rad Laboratories, Italy). Plasma serine levels were measured using the DL-Serine Assay Kit (Abcam, Cambridge, MA).

[5] = system: αSMA; assay: Phenotypic assay: high content aSMA staining in NHLF cells; assay type: cell-based, Human; details: NHLF, 72 h incubation
Protocol: NHLF cells (Lonza #CC2512) were seeded as 2000 cells/well in 384-well plates in MEM medium w/o serine and glycine (Sigma #M2279)+1% pen/strep+5 mM L-glutamine +10% FBS and incubated overnight at 37° C., 5% CO2.
The next day, cells were washed with PBS and starvation MEM medium w/o serine and glycine (0% FBS) was added and cells were incubated overnight at 37° C., 5% CO2. The day after, cells were pre-incubated with compounds or vehicle (0.3% DMSO) for 1 h. Compounds were tested at 9 consecutive 3-fold dilutions starting from 30 μM. Each compound was tested in duplicate. Cells were further incubated for 72 h at 37° C., 5% CO2, 95% humidity. After 72 h of incubation, αSMA expression was quantified using immunostaining: • Fixation in 4% paraformaldehyde, • Blocking with 3% BSA, 2% FBS, 0.2% Triton-X in PBS, • Primary ab. anti-αSMA (AbCam #ab7817) diluted 500× in blocking buffer • Anti-mouse secondary ab. AF488 (ThermoFisher #A11029) • % of αSMA positive cells was determined by High Content Imaging (Molecular Device), data analysis was performed using MetaXpress software (Molecular Devices) and % of αSMA positive was further used to calculate % of inhibition for tested compounds. Total cell number was determined by Hoechst staining and % of viability over TGFβ stimulated controls was calculated.

## CC(C)C(C(=O)O)c1ccc(C2(NC(=O)c3cc4c(Cl)c(Cl)ccc4n3C)CCOC2)cc1 (racemic) [Compound 19, (±)-2-(4-(3-(4,5-Dichloro-1-methyl-1H-indole-2-carboxamido)tetrahydro-furan-3-yl)phenyl)-3-methylbutanoic acid]
[1]; Homo sapiens, NHLF, FBS 72 h, confidence interval in brackets, NA: not active, read-out: FBS induced proliferation (pIC50-C.I.) (converted)
  IC50: 631 nM
[1]; NHLFs, 72 h
  cell proliferation induced by serum treatment (FIG. 3): able to reduce the cell proliferation
[2]; brain / plasma, read-out: mean brain/plasma ratio
  Kp: 0.01
[2]; lung / plasma, read-out: mean lung/plasma ratio
  Kp: 0.4
[3]; 300 mg/kg po, 1 h
  brain serine concentration (in words): without reaching the statistical significance
[3]; 300 mg/kg, any timepoint (1, 6.5, 24.5 h)
  inhibition of labelled serine in brain: no significant inhibition
[3]; 300 mg/kg po, 1 h, read-out: inhibition of labelled serine in lung
  inhibition at 300 mg/kg: 85%
[3]; 300 mg/kg po, 1 h, read-out: inhibition of labelled serine in plasma
  inhibition at 300 mg/kg: 87%
[3]; 300 mg/kg, at 1 and 6.5 h, read-out: inhibition of labelled serine in plasma and lung
  inhibition at 300 mg/kg: 70 to 85%
[4]; 400 and 600 mg/kg/day
  circulating serine levels in plasma: significant reduction at both doses
[4]; Compound 19 highest dose (600 mg/kg/day), Nintedanib esylate 60 mg/kg/day, not significant
  reduction of lung/body weight: −31%
[4]; compared to BLM/Vehicle treated group
  body weight during 2-weeks of treatment: did not lose additional weight
[4]; day 21
  Ashcroft score (FIG. 11A): reduced
  collagen content (automatic collagen deposition quantification, FIG. 13): reached statistical significance with the highest dose
  frequency of Ashcroft score classes (FIG. 11B): reduced the frequency of the most severe scores of fibrosis
  reduction of tissue area occupied by fibrotic lesions (automated analysis): ~25%
  severity of fibrosis (automated analysis, FIG. 12): significant reduction of severity of fibrosis
[4]; highest tested dose (600 mg/kg/day), two animals died in BLM/Vehicle group
  deaths during treatment: only one animal died
[4]; lung homogenates
  lung levels of Hydroxyproline, Collagen I and WISP-1: significantly reduced
[5]
  aSMA pIC50: 5.9

From US20260207551A1, “PHOSPHOGLICERATE DEHYDROGENASE INHIBITORS FOR THE TREATMENT OF FIBROSIS” (CHIESI FARMACEUTICI S.P.A., priority 2022, published 2026)
